In US4473544A, “Radio-iodine-labelled omega phenyl fatty acids” (priority 1979, dated 1984):

How the values were obtained:
[1] = Renal excretion and extracellular distribution of beta-oxidation degradation products; assay type: in vivo; conditions: products of beta-oxidation of radio-iodine-labelled phenyl fatty acids
Description: We have now discovered radio-iodine-labelled omega-phenyl fatty acids, particularly p-I123 -omega-phenyl pentadecanoic acid and its use, to image body organs such as the heart and liver. Through the use of these novel agents, the disadvantages associated with the use of omega-iodine fatty acids, e.g., injecting radioactive iodide as an internal standard and making the necessary corrections, can be completely avoided.
On degradation via beta-oxidation of the iodinated phenyl fatty acid of the invention, the radioactive residue produced is not iodide, but rather iodinated benzoic or iodinated phenylacetic acid. […] Tests in mice have proven that the residual activity in the blood is 2% of the injected dose per gram of blood.

[2] = stated as known; cited from earlier work

## iodophenylacetic acid
[1]
  distribution throughout the extracellular fluid: does not occur
  excretion by the kidneys: rapidly and quantitatively excreted by the kidneys
[2]
  excretion from the body via the kidneys: rapidly excreted from the body via the kidneys
